22 molecules from PubChem BioAssay AID256 (DTP/NCI, 2004) can be followed below.

This test has as its system CD2F1 mice, L1210 leukemia ip, survival T/C. In words: NCI In Vivo Anticancer Drug Screen. Data for tumor model L1210 Leukemia (intraperitoneal) in CD2F1 (CDF1) mice. Particulars: higher = longer survival. Put shortly: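 Tumor-bearing mice (transplanted tumor) were split into treated and vehicle control groups, and the measured endpoint of each treated group was divided by that of its vehicle controls.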

Where [1] appears, read: endpoint: mean survival time, dose: 6.25 mg/kg/injection, schedule: Q01DX009 (ip), vehicle: saline with Tween-80.
The mark [2] stands for this setting: endpoint: mean survival time, dose: 6.25 mg/kg/injection, schedule: Q01DX009 (ip), vehicle: saline.
Where [3] appears, read: endpoint: mean survival time, dose: 12.5 mg/kg/injection, schedule: Q01DX009 (ip), vehicle: saline with Tween-80.
The mark [4] stands for this setting: endpoint: mean survival time, dose: 12.5 mg/kg/injection, schedule: Q01DX009 (ip), vehicle: saline.
Setting [5] is: endpoint: mean survival time, dose: 25.0 mg/kg/injection, schedule: Q01DX009 (ip), vehicle: saline with Tween-80.
Where [6] appears, read: endpoint: mean survival time, dose: 25.0 mg/kg/injection, schedule: Q01DX009 (ip), vehicle: saline.
Setting [7] is: endpoint: mean survival time, dose: 50.0 mg/kg/injection, schedule: Q01DX009 (ip), vehicle: saline with Tween-80.
Where [8] appears, read: endpoint: mean survival time, dose: 50.0 mg/kg/injection, schedule: Q01DX009 (ip), vehicle: saline.
The mark [9] stands for this setting: endpoint: mean survival time, dose: 100.0 mg/kg/injection, schedule: Q01DX009 (ip), vehicle: saline with Tween-80.
Where [10] appears, read: endpoint: mean survival time, dose: 200.0 mg/kg/injection, schedule: Q01DX009 (ip), vehicle: saline with Tween-80.
[11] abbreviates: endpoint: mean survival time, dose: 100.0 mg/kg/injection, schedule: Q01DX001 (ip), vehicle: saline.
The mark [12] stands for this setting: endpoint: mean survival time, dose: 200.0 mg/kg/injection, schedule: Q01DX001 (ip), vehicle: saline.
The mark [13] stands for this setting: endpoint: mean survival time, dose: 400.0 mg/kg/injection, schedule: Q01DX009 (ip), vehicle: saline with Tween-80.
[14] abbreviates: endpoint: mean survival time, dose: 400.0 mg/kg/injection, schedule: Q01DX001 (ip), vehicle: saline.
[15] abbreviates: endpoint: mean survival time, dose: 100.0 mg/kg/injection, schedule: Q04DX003 (ip), vehicle: saline with Tween-80.
Setting [16] is: endpoint: mean survival time, dose: 200.0 mg/kg/injection, schedule: Q04DX003 (ip), vehicle: saline with Tween-80.
The mark [17] stands for this setting: endpoint: mean survival time, dose: 400.0 mg/kg/injection, schedule: Q04DX003 (ip), vehicle: saline with Tween-80.
The mark [18] stands for this setting: endpoint: mean survival time, dose: 100.0 mg/kg/injection, schedule: Q01DX009 (ip), vehicle: Klucel (hydroxypropylcellulose) (HPC).
The mark [19] stands for this setting: endpoint: mean survival time, dose: 200.0 mg/kg/injection, schedule: Q01DX009 (ip), vehicle: Klucel (hydroxypropylcellulose) (HPC).

Each structure is given as a SMILES string. Values joined by “and” are separate entries in the source; they are usually repeats but may differ in a detail not shown here. Identical values can stand only once. Inconclusive results and toxic doses are left out.

On to `COC(=O)C(Cl)(Cl)N=Nc1c(Cl)cc(Cl)c(C)c1Cl`, for which the T/C was 96 % of control under setting [1]; 93 % of control under setting [2]; 100 % of control under setting [3]; 98 % of control under setting [4]; 97 % of control under setting [5]; 93 % of control under setting [6]. Besides, the T/C is 94 % of control under setting [7]; 98 % of control under setting [8]; 102 % of control under setting [9]; 90 % of control (endpoint: mean survival time, dose: 100.0 mg/kg/injection, schedule: Q01DX009 (ip), vehicle: saline); 86 % of control under setting [10]; 86 % of control (endpoint: mean survival time, dose: 200.0 mg/kg/injection, schedule: Q01DX009 (ip), vehicle: saline).

Consider `COC(=O)C1(C)CCCC2(C)C3CCC(C)(CCO)CC3C(O)CC12` (stereo unspecified), for which the T/C is 102 % of control (endpoint: mean survival time, dose: 100.0 mg/kg/injection, schedule: Q01DX001 (ip), vehicle: saline sonified); 96 % of control (endpoint: mean survival time, dose: 100.0 mg/kg/injection, schedule: Q01DX001 (ip), vehicle: saline with Tween-80); 101 % of control (endpoint: mean survival time, dose: 200.0 mg/kg/injection, schedule: Q01DX001 (ip), vehicle: saline sonified); 101 % of control (endpoint: mean survival time, dose: 200.0 mg/kg/injection, schedule: Q01DX001 (ip), vehicle: saline with Tween-80); 93 % of control (endpoint: mean survival time, dose: 400.0 mg/kg/injection, schedule: Q01DX001 (ip), vehicle: saline sonified); 105 % of control (endpoint: mean survival time, dose: 400.0 mg/kg/injection, schedule: Q01DX001 (ip), vehicle: saline with Tween-80).

For `O=C(O)c1c[nH]c2c(Cl)cccc2c1=O`, the T/C is 102 % of control under setting [11] and 100 % of control under setting [12].

Regarding `CC(=O)N(O)c1ccc2c(c1)Cc1ccccc1-2`, the T/C is 98 % of control under setting [9], 101 % of control under setting [10] and 101 % of control under setting [13].

In the case of `O=[N+]([O-])c1cccc(N=C(c2ccccc2)N(O)c2ccccc2)c1`, the T/C is, setting by setting: under setting [11], 100 % of control; (endpoint: mean survival time, dose: 100.0 mg/kg/injection, schedule: Q04DX003 (ip), vehicle: saline) 102 % of control; under setting [12], 100 % of control; (endpoint: mean survival time, dose: 200.0 mg/kg/injection, schedule: Q04DX003 (ip), vehicle: saline) 97 % of control; under setting [14], 100 % of control; (endpoint: mean survival time, dose: 400.0 mg/kg/injection, schedule: Q04DX003 (ip), vehicle: saline) 103 % of control.

Take `O=C1CCCCCC1c1ccccc1` (stereo unspecified): the T/C runs as follows: under setting [9], 102 % of control; under setting [10], 102 % of control; under setting [13], 98 % of control.

Turning to `CCCC/C=C/C=C/CCCC`, the T/C by setting is: under setting [7], 103 % of control; under setting [9], 92 % of control; under setting [10], 107 % of control.

Consider `OC(Cc1nc(-c2ccccc2)c(-c2ccccc2)s1)(C(F)(F)F)C(F)(F)F`, for which the T/C is, setting by setting: under setting [9], 95 % of control; under setting [15], 91 % of control; under setting [10], 101 % of control; under setting [16], 95 % of control; under setting [13], 86 % of control; under setting [17], 89 % of control.

`CCCCCCCCCCCCCCCCCCCCc1ccccc1`: the T/C was 97 % of control (endpoint: mean survival time, dose: 100.0 mg/kg/injection, schedule: Q04DX002 (ip), vehicle: Klucel (hydroxypropylcellulose) (HPC)); 94 % of control (endpoint: mean survival time, dose: 200.0 mg/kg/injection, schedule: Q04DX002 (ip), vehicle: Klucel (hydroxypropylcellulose) (HPC)); 90 % of control (endpoint: mean survival time, dose: 400.0 mg/kg/injection, schedule: Q04DX002 (ip), vehicle: Klucel (hydroxypropylcellulose) (HPC)).

For the molecule `CNC(=O)c1cccc2ccccc12`, the T/C by setting is: (endpoint: mean survival time, dose: 50.0 mg/kg/injection, schedule: Q01DX001 (ip), vehicle: saline) 103 % of control; under setting [11], 100 % of control; under setting [12], 97 % of control; under setting [14], 95 % of control.

`OCC1OC(n2cnc3c4ccccc4ccc32)C(O)C1O` (stereo unspecified): the T/C (endpoint: median survival time, dose: 10.0 mg/kg/injection, schedule: Q01DX005 (ip), vehicle: saline with Tween-80) was 110 % of control; the T/C (endpoint: median survival time, dose: 16.25 mg/kg/injection, schedule: Q01DX005 (ip), vehicle: saline with Tween-80) is 98 % of control; the T/C (endpoint: median survival time, dose: 20.0 mg/kg/injection, schedule: Q01DX005 (ip), vehicle: saline with Tween-80) is 103 % of control; the T/C (endpoint: median survival time, dose: 32.5 mg/kg/injection, schedule: Q01DX005 (ip), vehicle: saline with Tween-80) is 100 % of control; the T/C (endpoint: median survival time, dose: 40.0 mg/kg/injection, schedule: Q01DX005 (ip), vehicle: saline with Tween-80) was 97 % of control; the T/C (endpoint: median survival time, dose: 65.0 mg/kg/injection, schedule: Q01DX005 (ip), vehicle: saline with Tween-80) is 107 % of control. The T/C was 103 % of control (endpoint: median survival time, dose: 80.0 mg/kg/injection, schedule: Q01DX005 (ip), vehicle: saline with Tween-80) and 97 % of control (endpoint: median survival time, dose: 130.0 mg/kg/injection, schedule: Q01DX005 (ip), vehicle: saline with Tween-80).

As to `CCOC(=O)c1c(F)c(F)c(Oc2c(F)c(F)c(F)c(F)c2F)c(F)c1F`, the T/C is 86 % of control under setting [15], 96 % of control under setting [16] and 92 % of control under setting [17].

For the molecule `CCCC/C=C/C(=O)O`, the T/C is, setting by setting: under setting [7], 98 % of control; under setting [9], 98 % of control; under setting [10], 102 % of control.

In the case of `Clc1ccc(-n2cccc2)cc1`, the T/C reads like this: under setting [15], 98 % of control; under setting [16], 91 % of control; under setting [17], 98 % of control.

As for `O=C1NC(=O)c2ccccc21`, the T/C reads like this: under setting [18], 102 % of control; under setting [19], 106 % of control; (endpoint: mean survival time, dose: 400.0 mg/kg/injection, schedule: Q01DX009 (ip), vehicle: Klucel (hydroxypropylcellulose) (HPC)) 101 % of control.

Turning to `O=c1[nH]c2c(ccc3cnccc32)c2c1CCC2`, the T/C runs as follows: (endpoint: mean survival time, dose: 3.12 mg/kg/injection, schedule: Q01DX009 (ip), vehicle: saline) 107 % of control; under setting [2], 100 % of control and 110 % of control; under setting [4], 96 % of control and 107 % of control; under setting [6], 119 % of control and 111 % of control; under setting [8], 88 % of control and 96 % of control.

Regarding `Nc1nc2c(nnn2C2CC(O)C(CO)C2)c(=O)[nH]1` (stereo unspecified), the T/C by setting is: under setting [9], 100 % of control; under setting [10], 104 % of control.

With `COc1c2c(c(OC)c3c1C(=O)c1ccccc1C3=O)CC(O)CC2` (stereo unspecified), the T/C is, setting by setting: (endpoint: mean survival time, dose: 12.5 mg/kg/injection, schedule: Q01DX009 (ip), vehicle: Klucel (hydroxypropylcellulose) (HPC)) 92 % of control; (endpoint: mean survival time, dose: 25.0 mg/kg/injection, schedule: Q01DX009 (ip), vehicle: Klucel (hydroxypropylcellulose) (HPC)) 94 % of control; (endpoint: mean survival time, dose: 50.0 mg/kg/injection, schedule: Q01DX009 (ip), vehicle: Klucel (hydroxypropylcellulose) (HPC)) 92 % of control; under setting [18], 88 % of control; under setting [19], 90 % of control.

In the case of `CCOC(=N)CNC(=O)c1ccccc1`, the T/C (endpoint: mean survival time, dose: 100.0 mg/kg/injection, schedule: Q04DX002 (ip), vehicle: saline with Tween-80) was 105 % of control; the T/C (endpoint: mean survival time, dose: 200.0 mg/kg/injection, schedule: Q04DX002 (ip), vehicle: saline with Tween-80) is 98 % of control; the T/C (endpoint: mean survival time, dose: 400.0 mg/kg/injection, schedule: Q04DX002 (ip), vehicle: saline with Tween-80) was 98 % of control.

Turning to `CN(C)N=Nc1ccc(NC(N)=O)cc1`, the T/C reads like this: under setting [1], 108 % of control; under setting [2], 118 % of control; under setting [3], 113 % of control; under setting [4], 111 % of control; under setting [5], 118 % of control; (endpoint: mean survival time, dose: 37.5 mg/kg/injection, schedule: Q01DX009 (ip), vehicle: Klucel (hydroxypropylcellulose) (HPC)) 158 % of control. Further, the T/C under setting [7] was 159 % of control.

As for `O=C(/C=N/O)Nc1ccccc1`, the T/C reads like this: under setting [15], 101 % of control; under setting [16], 100 % of control; under setting [17], 95 % of control.

Turning to `COc1ccc(Nc2ccccc2Cl)c(C(=O)O)c1`, the T/C is, setting by setting: under setting [15], 98 % of control; under setting [16], 102 % of control; under setting [17], 102 % of control.
